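Dose response: 5 concentrations. Exposure: 48 h. Format: 96-well plates. Endpoint: linear interpolation; highest concentration if not reached. GI50 is the concentration that inhibits growth by half.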 Calls of active or inactive are those of the source. Cut-off read from the data, not from the text of the source: active = GI50 up to about 1.1 µM and inactive = higher.
Tests used:
Assay in all cases: growth of human tumour cells (NCI), 48 h
SW-620 = test system: SW-620
M19-MEL = test system: M19-MEL
HOP-92 = test system: HOP-92
SNB-78 = test system: SNB-78
DLD-1 = test system: DLD-1
A549 = test system: A549
OVCAR-4 = test system: OVCAR-4
HOP-18 = test system: HOP-18
A498 = test system: A498
KM-20L2 = test system: KM-20L2
CAKI-1 = test system: CAKI-1
UACC-257 = test system: UACC-257
NCI/ADR-RES = test system: NCI/ADR-RES
NCI-H522 = test system: NCI-H522
BT-549 = test system: BT-549
NCI-H226 = test system: NCI-H226
MDA-MB-435 = test system: MDA-MB-435
ACHN = test system: ACHN
RPMI-8226 = test system: RPMI-8226
MDA-MB-231 = test system: MDA-MB-231

COc1ccc2c(c1)OCCc1cn[nH]c1-2
GI50 (SW-620): 36.3 µM (inactive) | GI50 (M19-MEL): 69 µM (inactive) | GI50 (HOP-92): 15.4 µM (inactive) | GI50 (SNB-78): 29.1 µM (inactive) | GI50 (DLD-1): 36.7 µM (inactive) | GI50 (A549): 53.8 µM (inactive) | GI50 (OVCAR-4): 48.6 µM (inactive) | GI50 (HOP-18): 30.8 µM (inactive) | GI50 (A498): 28.6 µM (inactive) | GI50 (KM-20L2): 54 µM (inactive) | GI50 (CAKI-1): < 0.01 µM (active) | GI50 (UACC-257): 32.7 µM (inactive) | GI50 (NCI/ADR-RES): 35.3 µM (inactive) | GI50 (NCI-H522): 29 µM (inactive)

CCC(=O)NC(Nc1ccc(O)cc1)(C(F)(F)F)C(F)(F)F
GI50 (BT-549): 28.1 µM (inactive) | GI50 (NCI-H226): > 100 µM (inactive) | GI50 (A498): > 100 µM (inactive) | GI50 (MDA-MB-435): 25.2 µM (inactive) | GI50 (ACHN): 56 µM (inactive) | GI50 (RPMI-8226): 33.3 µM (inactive) | GI50 (UACC-257): 37.4 µM (inactive) | GI50 (MDA-MB-231): 73.8 µM (inactive) | GI50 (NCI-H522): 27.4 µM (inactive)

COC(=O)C1=C(C(=O)OC)SC2(S1)C1=C(CCCC1)SC(C(=O)OC)=C2C(=O)OC
GI50 (SW-620): 2.09 µM (inactive) | GI50 (BT-549): 11.7 µM (inactive) | GI50 (HOP-92): 7.82 µM (inactive) | GI50 (A549): 14.6 µM (inactive) | GI50 (OVCAR-4): 12.2 µM (inactive) | GI50 (A498): 6.21 µM (inactive) | GI50 (MDA-MB-435): 2.81 µM (inactive) | GI50 (ACHN): 6.05 µM (inactive) | GI50 (RPMI-8226): 0.586 µM (active) | GI50 (CAKI-1): 4.06 µM (inactive) | GI50 (UACC-257): 13.1 µM (inactive) | GI50 (MDA-MB-231): 15.8 µM (inactive) | GI50 (NCI/ADR-RES): 17.9 µM (inactive) | GI50 (NCI-H522): 1.72 µM (inactive)

C/C(=C/C(=O)Nc1ccccc1)Nc1onc(C)c1C
GI50 (SW-620): > 100 µM (inactive) | GI50 (M19-MEL): > 100 µM (inactive) | GI50 (HOP-92): > 100 µM (inactive) | GI50 (SNB-78): > 100 µM (inactive) | GI50 (DLD-1): > 100 µM (inactive) | GI50 (A549): > 100 µM (inactive) | GI50 (OVCAR-4): > 100 µM (inactive) | GI50 (NCI-H226): > 100 µM (inactive) | GI50 (HOP-18): > 100 µM (inactive) | GI50 (A498): > 100 µM (inactive) | GI50 (RPMI-8226): > 100 µM (inactive) | GI50 (KM-20L2): > 100 µM (inactive) | GI50 (UACC-257): > 100 µM (inactive) | GI50 (NCI/ADR-RES): > 100 µM (inactive) | GI50 (NCI-H522): > 100 µM (inactive)

O=C(O)c1cc([N+](=O)[O-])cc2c(=O)c3cnccc3[nH]c12
GI50 (BT-549): > 100 µM (inactive) | GI50 (OVCAR-4): > 100 µM (inactive) | GI50 (NCI-H226): > 100 µM (inactive) | GI50 (A498): > 100 µM (inactive) | GI50 (MDA-MB-435): > 100 µM (inactive) | GI50 (RPMI-8226): > 100 µM (inactive) | GI50 (CAKI-1): > 100 µM (inactive) | GI50 (MDA-MB-231): > 100 µM (inactive) | GI50 (NCI/ADR-RES): > 100 µM (inactive) | GI50 (NCI-H522): > 100 µM (inactive)

CC(=O)CCC#Cc1ccccc1C(=O)C(C)=[N+]=[N-]
GI50 (SW-620): 52.7 µM (inactive) | GI50 (HOP-92): 38 µM (inactive) | GI50 (DLD-1): 79.8 µM (inactive) | GI50 (A549): 41 µM (inactive) | GI50 (OVCAR-4): 50.9 µM (inactive) | GI50 (NCI-H226): 48.5 µM (inactive) | GI50 (HOP-18): 97.1 µM (inactive) | GI50 (A498): 53.6 µM (inactive) | GI50 (ACHN): 39.5 µM (inactive) | GI50 (RPMI-8226): 17.4 µM (inactive) | GI50 (KM-20L2): 79.1 µM (inactive) | GI50 (UACC-257): 53 µM (inactive)

Cc1ccc(Sc2ccccc2[N+](=O)[O-])cc1
GI50 (SW-620): 25.9 µM (inactive) | GI50 (M19-MEL): 32.1 µM (inactive) | GI50 (HOP-92): 19.4 µM (inactive) | GI50 (SNB-78): 36.6 µM (inactive) | GI50 (DLD-1): 32.4 µM (inactive) | GI50 (A549): 35 µM (inactive) | GI50 (OVCAR-4): 27.4 µM (inactive) | GI50 (NCI-H226): 21.7 µM (inactive) | GI50 (HOP-18): > 100 µM (inactive) | GI50 (A498): 47.6 µM (inactive) | GI50 (ACHN): 43.7 µM (inactive) | GI50 (RPMI-8226): 42.4 µM (inactive) | GI50 (KM-20L2): 33.3 µM (inactive) | GI50 (UACC-257): 20 µM (inactive)

CC(C)c1cccc(C(C)C)c1NC(=S)Nc1ccccc1
GI50 (SW-620): > 100 µM (inactive) | GI50 (M19-MEL): > 100 µM (inactive) | GI50 (HOP-92): > 100 µM (inactive) | GI50 (SNB-78): > 100 µM (inactive) | GI50 (DLD-1): > 100 µM (inactive) | GI50 (A549): > 100 µM (inactive) | GI50 (OVCAR-4): 10.8 µM (inactive) | GI50 (NCI-H226): > 100 µM (inactive) | GI50 (HOP-18): > 100 µM (inactive) | GI50 (A498): > 100 µM (inactive) | GI50 (ACHN): > 100 µM (inactive) | GI50 (RPMI-8226): > 100 µM (inactive) | GI50 (KM-20L2): > 100 µM (inactive) | GI50 (UACC-257): > 100 µM (inactive)

O=C1Sc2ccccc2NC1=C(C(=O)c1ccccc1)C(=O)c1ccccc1
GI50 (SW-620): 30.2 µM (inactive) | GI50 (BT-549): 35.9 µM (inactive) | GI50 (HOP-92): 36.6 µM (inactive) | GI50 (A549): 27.5 µM (inactive) | GI50 (OVCAR-4): 69.8 µM (inactive) | GI50 (NCI-H226): 19.4 µM (inactive) | GI50 (A498): 34.8 µM (inactive) | GI50 (MDA-MB-435): 40.6 µM (inactive) | GI50 (ACHN): 22.1 µM (inactive) | GI50 (RPMI-8226): 12.6 µM (inactive) | GI50 (CAKI-1): 56.2 µM (inactive) | GI50 (UACC-257): 17.5 µM (inactive) | GI50 (MDA-MB-231): 65.6 µM (inactive) | GI50 (NCI/ADR-RES): 22.3 µM (inactive) | GI50 (NCI-H522): 18.4 µM (inactive)

O=S(=O)(CF)OCCCCOS(=O)(=O)CF
GI50 (SW-620): > 100 µM (inactive) | GI50 (M19-MEL): > 100 µM (inactive) | GI50 (HOP-92): 0.701 µM (active) | GI50 (SNB-78): > 100 µM (inactive) | GI50 (NCI-H226): > 100 µM (inactive) | GI50 (HOP-18): > 100 µM (inactive) | GI50 (A498): > 100 µM (inactive) | GI50 (ACHN): 20.4 µM (inactive) | GI50 (RPMI-8226): > 100 µM (inactive) | GI50 (KM-20L2): > 100 µM (inactive) | GI50 (CAKI-1): > 100 µM (inactive) | GI50 (NCI-H522): > 100 µM (inactive)

COc1nn(Cc2ccccc2F)c2ccc([N+](=O)[O-])cc12
GI50 (SW-620): > 100 µM (inactive) | GI50 (HOP-92): 90.6 µM (inactive) | GI50 (A549): > 100 µM (inactive) | GI50 (OVCAR-4): > 100 µM (inactive) | GI50 (NCI-H226): > 100 µM (inactive) | GI50 (MDA-MB-435): 2.74 µM (inactive) | GI50 (ACHN): > 100 µM (inactive) | GI50 (CAKI-1): > 100 µM (inactive) | GI50 (UACC-257): > 50.6 µM (inactive) | GI50 (MDA-MB-231): 12.1 µM (inactive) | GI50 (NCI/ADR-RES): > 100 µM (inactive) | GI50 (NCI-H522): > 30 µM (inactive)

COc1cccc(N[C@@H]2c3cc4c(cc3C(c3cc(OC)c(O)c(OC)c3)[C@H]3C(=O)OCC32)OCO4)c1 (some centres not stated)
GI50 (SW-620): 0.891 µM (active) | GI50 (M19-MEL): 0.624 µM (active) | GI50 (HOP-92): 0.346 µM (active) | GI50 (SNB-78): 5.36 µM (inactive) | GI50 (DLD-1): 1.58 µM (inactive) | GI50 (A549): 0.0213 µM (active) | GI50 (OVCAR-4): 7.55 µM (inactive) | GI50 (NCI-H226): 0.249 µM (active) | GI50 (HOP-18): 1.52 µM (inactive) | GI50 (A498): 0.293 µM (active) | GI50 (RPMI-8226): 0.186 µM (active) | GI50 (KM-20L2): 1.46 µM (inactive) | GI50 (CAKI-1): 0.197 µM (active) | GI50 (UACC-257): 0.44 µM (active) | GI50 (NCI/ADR-RES): 0.348 µM (active) | GI50 (NCI-H522): 1.21 µM (inactive)

CCc1nnc(-c2nsc3ccccc23)s1
GI50 (SW-620): > 100 µM (inactive) | GI50 (HOP-92): 69.5 µM (inactive) | GI50 (SNB-78): > 100 µM (inactive) | GI50 (A549): > 100 µM (inactive) | GI50 (OVCAR-4): > 100 µM (inactive) | GI50 (HOP-18): > 100 µM (inactive) | GI50 (ACHN): > 100 µM (inactive) | GI50 (RPMI-8226): 45.4 µM (inactive) | GI50 (KM-20L2): 63.5 µM (inactive) | GI50 (UACC-257): > 100 µM (inactive)
